Article PMC9571063 (Molecules, 2022)
Read-outs that look alike come from different tables or passages of the source.

Experiments:
ACVR2B = biological target: T1, ACVR2B (Homo sapiens, UniProt Q13705); assay: KINOMEscan; format: binding; details: read-out: Percent Control
T1 construct: purchased Eurofins DiscoverX KINOMEscan (scanMAX 468)

[1] = biological target: T2, TYK2(JH1domain-catalytic) (Homo sapiens, UniProt P29597); assay: KINOMEscan; format: binding; details: read-out: Percent Control
T2 construct: TYK2(JH1domain-catalytic); purchased Eurofins DiscoverX KINOMEscan (scanMAX 468)

RIOK1 = biological target: T3, RIOK1 (Homo sapiens, UniProt Q9BRS2); assay: KINOMEscan; format: binding; details: read-out: Percent Control
T3 construct: purchased Eurofins DiscoverX KINOMEscan (scanMAX 468)

MEK6 = biological target: T4, MEK6 (Homo sapiens, UniProt P52564); assay: KINOMEscan; format: binding; details: read-out: Percent Control
T4 construct: purchased Eurofins DiscoverX KINOMEscan (scanMAX 468)
T4 sequence (P52564 whole entry): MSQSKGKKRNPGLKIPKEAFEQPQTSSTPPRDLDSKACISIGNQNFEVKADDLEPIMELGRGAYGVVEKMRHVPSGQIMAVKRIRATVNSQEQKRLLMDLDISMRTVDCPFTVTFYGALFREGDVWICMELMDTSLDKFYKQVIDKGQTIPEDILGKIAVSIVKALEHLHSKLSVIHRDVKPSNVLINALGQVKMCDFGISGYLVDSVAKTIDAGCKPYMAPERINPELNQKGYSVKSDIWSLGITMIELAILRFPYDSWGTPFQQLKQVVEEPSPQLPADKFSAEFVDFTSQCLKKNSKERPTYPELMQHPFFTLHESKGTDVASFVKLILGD

MAST1 = biological target: T5, MAST1 (Homo sapiens, UniProt Q9Y2H9); assay: KINOMEscan; format: binding; details: read-out: Percent Control
T5 construct: purchased Eurofins DiscoverX KINOMEscan (scanMAX 468)

ANKK1 = biological target: T6, ANKK1 (Homo sapiens, UniProt Q8NFD2); assay: KINOMEscan; format: binding; details: read-out: Percent Control
T6 construct: purchased Eurofins DiscoverX KINOMEscan (scanMAX 468)

PIK3C2G = biological target: T7, PIK3C2G (Homo sapiens, UniProt O75747); assay: KINOMEscan; format: binding; details: read-out: Percent Control
T7 construct: purchased Eurofins DiscoverX KINOMEscan (scanMAX 468)

Hs_CDK9/CyclinT = biological target: T8, Hs_CDK9/CyclinT (Homo sapiens, UniProt P50750); set-up: method as in ref 13 (a number printed in a supplementary file, which may have a reference list of its own: not looked up in the article's list); details: DB18, cited from earlier work
T8 construct: host or cells: Sf9 insect cells (baculovirus)
T8 sequence (P50750 whole entry): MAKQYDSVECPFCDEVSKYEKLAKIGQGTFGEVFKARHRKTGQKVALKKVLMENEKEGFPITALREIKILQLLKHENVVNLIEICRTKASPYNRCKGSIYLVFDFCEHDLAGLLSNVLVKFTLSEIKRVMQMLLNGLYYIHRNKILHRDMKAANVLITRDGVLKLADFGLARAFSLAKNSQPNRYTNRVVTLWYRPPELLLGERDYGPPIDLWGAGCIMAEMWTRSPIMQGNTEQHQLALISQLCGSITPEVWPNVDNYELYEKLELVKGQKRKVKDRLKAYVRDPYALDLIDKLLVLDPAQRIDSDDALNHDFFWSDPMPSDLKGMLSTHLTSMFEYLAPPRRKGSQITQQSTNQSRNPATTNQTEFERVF
T8 sequence (O60563 whole entry partner): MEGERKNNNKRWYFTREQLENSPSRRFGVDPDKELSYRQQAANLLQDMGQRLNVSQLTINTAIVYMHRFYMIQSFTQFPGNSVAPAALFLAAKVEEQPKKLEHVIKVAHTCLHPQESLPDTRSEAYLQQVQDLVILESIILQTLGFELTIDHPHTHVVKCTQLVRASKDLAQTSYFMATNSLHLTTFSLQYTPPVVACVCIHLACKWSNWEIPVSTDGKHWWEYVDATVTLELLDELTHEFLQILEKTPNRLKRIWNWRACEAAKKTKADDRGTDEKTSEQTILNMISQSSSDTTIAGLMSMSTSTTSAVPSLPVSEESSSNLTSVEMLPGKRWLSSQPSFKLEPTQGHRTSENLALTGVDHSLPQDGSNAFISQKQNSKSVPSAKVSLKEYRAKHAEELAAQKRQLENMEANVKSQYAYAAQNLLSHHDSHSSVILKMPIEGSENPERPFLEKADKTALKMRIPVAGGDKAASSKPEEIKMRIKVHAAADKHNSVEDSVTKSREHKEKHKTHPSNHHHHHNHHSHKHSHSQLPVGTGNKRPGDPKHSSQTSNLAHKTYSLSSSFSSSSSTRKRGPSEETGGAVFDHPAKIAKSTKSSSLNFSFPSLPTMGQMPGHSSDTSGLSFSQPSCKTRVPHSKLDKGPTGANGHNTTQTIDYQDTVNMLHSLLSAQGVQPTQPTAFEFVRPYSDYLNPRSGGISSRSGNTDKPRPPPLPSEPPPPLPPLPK

SRMS = biological target: T9, SRMS (Homo sapiens, UniProt Q9H3Y6); assay: KINOMEscan; format: binding; details: read-out: Percent Control
T9 construct: purchased Eurofins DiscoverX KINOMEscan (scanMAX 468)

PDPK1 = biological target: T10, PDPK1 (Homo sapiens, UniProt O15530); assay: KINOMEscan; format: binding; details: read-out: Percent Control
T10 construct: purchased Eurofins DiscoverX KINOMEscan (scanMAX 468)

Hs_HASPIN = biological target: T11, Hs_HASPIN (Homo sapiens, UniProt Q8TF76); set-up: method as in ref 13 (a number printed in a supplementary file, which may have a reference list of its own: not looked up in the article's list); details: DB18, cited from earlier work
T11 construct: host or cells: bacteria
T11 sequence (Q8TF76 1-798): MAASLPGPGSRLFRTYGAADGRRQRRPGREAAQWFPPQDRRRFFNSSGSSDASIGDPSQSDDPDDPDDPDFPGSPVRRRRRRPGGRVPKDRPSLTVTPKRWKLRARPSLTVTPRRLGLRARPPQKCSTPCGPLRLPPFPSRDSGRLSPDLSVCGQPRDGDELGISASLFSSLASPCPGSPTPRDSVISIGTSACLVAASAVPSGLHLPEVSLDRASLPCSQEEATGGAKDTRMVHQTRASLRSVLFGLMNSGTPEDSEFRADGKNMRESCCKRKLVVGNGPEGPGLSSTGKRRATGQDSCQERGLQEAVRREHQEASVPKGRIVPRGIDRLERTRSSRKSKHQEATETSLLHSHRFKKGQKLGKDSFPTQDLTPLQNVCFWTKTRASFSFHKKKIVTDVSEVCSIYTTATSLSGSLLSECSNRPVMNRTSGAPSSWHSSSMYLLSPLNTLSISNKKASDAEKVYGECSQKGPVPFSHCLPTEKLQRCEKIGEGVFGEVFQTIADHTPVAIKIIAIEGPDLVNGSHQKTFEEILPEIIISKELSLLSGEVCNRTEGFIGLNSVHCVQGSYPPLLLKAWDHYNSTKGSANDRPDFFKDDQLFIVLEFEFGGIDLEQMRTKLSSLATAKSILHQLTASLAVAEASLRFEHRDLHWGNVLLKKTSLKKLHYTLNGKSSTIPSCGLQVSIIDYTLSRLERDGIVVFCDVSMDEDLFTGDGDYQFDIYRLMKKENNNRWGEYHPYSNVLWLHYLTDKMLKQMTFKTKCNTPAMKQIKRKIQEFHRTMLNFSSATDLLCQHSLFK

panel of 468 kinases = assay: KINOMEscan, whole panel selectivity score; format: binding, human; details: 1 µM; non-mutant kinases with %Ctrl < 25 / 403 non-mutant kinases tested
TNNI3K = biological target: T12, TNNI3K (Homo sapiens, UniProt Q59H18); assay: KINOMEscan; format: binding; details: read-out: Percent Control
T12 construct: purchased Eurofins DiscoverX KINOMEscan (scanMAX 468)

CAMK4 = biological target: T13, CAMK4 (Homo sapiens, UniProt Q16566); assay: KINOMEscan; format: binding; details: read-out: Percent Control
T13 construct: purchased Eurofins DiscoverX KINOMEscan (scanMAX 468)

MLK2 = biological target: T14, MLK2 (Homo sapiens, UniProt Q02779); assay: KINOMEscan; format: binding; details: read-out: Percent Control
T14 construct: purchased Eurofins DiscoverX KINOMEscan (scanMAX 468)
T14 sequence (Q02779 whole entry): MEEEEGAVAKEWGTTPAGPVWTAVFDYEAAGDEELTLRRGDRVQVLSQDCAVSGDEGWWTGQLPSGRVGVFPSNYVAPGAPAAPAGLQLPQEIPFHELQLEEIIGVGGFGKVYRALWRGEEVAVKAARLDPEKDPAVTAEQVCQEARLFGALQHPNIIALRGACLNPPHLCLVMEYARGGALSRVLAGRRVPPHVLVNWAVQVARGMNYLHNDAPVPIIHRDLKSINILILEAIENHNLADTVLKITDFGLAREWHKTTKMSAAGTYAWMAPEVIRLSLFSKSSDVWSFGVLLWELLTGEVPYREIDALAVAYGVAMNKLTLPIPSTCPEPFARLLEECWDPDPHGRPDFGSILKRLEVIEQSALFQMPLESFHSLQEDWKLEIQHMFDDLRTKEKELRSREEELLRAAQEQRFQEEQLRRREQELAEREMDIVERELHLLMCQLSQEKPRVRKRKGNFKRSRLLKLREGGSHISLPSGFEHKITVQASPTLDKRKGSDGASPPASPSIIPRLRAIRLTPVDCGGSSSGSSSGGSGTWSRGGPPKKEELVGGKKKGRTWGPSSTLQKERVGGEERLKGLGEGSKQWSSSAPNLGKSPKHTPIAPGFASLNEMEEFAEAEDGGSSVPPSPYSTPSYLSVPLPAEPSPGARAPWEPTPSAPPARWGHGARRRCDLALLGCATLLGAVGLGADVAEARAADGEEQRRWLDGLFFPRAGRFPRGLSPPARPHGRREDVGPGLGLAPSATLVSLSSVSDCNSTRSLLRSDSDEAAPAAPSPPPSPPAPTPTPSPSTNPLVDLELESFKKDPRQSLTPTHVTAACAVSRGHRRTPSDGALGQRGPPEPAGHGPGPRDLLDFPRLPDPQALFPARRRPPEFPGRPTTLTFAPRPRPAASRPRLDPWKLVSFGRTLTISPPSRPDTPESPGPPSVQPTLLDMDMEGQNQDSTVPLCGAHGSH

CASK = biological target: T15, CASK (Homo sapiens, UniProt O14936); assay: KINOMEscan; format: binding; details: read-out: Percent Control
T15 construct: purchased Eurofins DiscoverX KINOMEscan (scanMAX 468)
T15 sequence (O14936 whole entry): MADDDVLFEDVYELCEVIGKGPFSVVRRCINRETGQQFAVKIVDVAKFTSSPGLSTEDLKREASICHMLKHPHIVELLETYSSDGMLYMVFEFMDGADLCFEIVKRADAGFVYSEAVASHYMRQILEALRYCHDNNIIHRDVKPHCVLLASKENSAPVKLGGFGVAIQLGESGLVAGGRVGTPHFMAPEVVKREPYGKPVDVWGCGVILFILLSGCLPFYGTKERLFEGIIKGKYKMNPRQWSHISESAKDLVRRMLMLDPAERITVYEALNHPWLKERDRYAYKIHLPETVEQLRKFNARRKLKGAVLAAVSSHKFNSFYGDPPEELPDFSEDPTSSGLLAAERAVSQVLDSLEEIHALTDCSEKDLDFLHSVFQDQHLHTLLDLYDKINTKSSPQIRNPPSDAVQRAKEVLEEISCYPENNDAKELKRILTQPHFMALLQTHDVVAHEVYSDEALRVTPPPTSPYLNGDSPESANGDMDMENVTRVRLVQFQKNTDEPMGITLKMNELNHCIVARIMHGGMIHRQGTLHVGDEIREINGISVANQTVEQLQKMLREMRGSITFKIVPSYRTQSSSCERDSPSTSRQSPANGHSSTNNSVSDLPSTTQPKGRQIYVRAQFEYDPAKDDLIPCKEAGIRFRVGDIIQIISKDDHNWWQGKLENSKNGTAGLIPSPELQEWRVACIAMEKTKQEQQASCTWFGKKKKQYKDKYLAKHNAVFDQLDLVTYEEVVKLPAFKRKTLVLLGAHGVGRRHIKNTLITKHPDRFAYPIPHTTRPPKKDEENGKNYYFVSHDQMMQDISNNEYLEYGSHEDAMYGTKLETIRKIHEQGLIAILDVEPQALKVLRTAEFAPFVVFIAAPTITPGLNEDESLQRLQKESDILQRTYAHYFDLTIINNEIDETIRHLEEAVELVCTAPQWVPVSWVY

PIK3CA = biological target: T16, PIK3CA (Homo sapiens, UniProt P42336); assay: KINOMEscan; format: binding; details: read-out: Percent Control
T16 construct: purchased Eurofins DiscoverX KINOMEscan (scanMAX 468)
T16 sequence (P42336 whole entry): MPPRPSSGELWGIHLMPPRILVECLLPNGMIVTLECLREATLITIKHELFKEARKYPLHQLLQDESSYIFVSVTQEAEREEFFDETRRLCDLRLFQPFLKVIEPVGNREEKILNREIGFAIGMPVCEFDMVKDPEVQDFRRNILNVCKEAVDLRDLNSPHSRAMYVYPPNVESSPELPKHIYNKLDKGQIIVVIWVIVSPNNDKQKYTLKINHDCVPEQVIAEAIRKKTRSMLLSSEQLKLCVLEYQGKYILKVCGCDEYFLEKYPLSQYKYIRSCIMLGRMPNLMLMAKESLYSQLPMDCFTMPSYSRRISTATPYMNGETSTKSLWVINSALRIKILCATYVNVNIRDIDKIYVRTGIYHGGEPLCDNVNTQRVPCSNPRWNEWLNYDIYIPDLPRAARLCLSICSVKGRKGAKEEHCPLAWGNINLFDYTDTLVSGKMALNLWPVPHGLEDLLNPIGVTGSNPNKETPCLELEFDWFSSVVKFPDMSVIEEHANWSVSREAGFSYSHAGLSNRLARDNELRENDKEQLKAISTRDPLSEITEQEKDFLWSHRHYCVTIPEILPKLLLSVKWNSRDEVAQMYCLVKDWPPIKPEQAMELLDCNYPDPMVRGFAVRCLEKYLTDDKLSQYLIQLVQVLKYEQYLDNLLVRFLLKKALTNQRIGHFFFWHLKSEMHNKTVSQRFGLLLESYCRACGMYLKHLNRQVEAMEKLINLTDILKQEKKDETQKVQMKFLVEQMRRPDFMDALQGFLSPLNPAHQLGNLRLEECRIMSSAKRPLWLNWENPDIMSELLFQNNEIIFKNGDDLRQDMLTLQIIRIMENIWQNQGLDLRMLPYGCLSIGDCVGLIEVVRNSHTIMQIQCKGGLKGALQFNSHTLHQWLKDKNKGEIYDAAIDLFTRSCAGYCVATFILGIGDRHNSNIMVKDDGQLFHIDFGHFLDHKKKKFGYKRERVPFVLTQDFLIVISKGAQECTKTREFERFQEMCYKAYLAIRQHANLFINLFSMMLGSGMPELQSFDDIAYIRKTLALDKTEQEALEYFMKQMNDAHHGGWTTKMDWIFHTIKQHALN

CDK4-cyclinD3 = biological target: T17, CDK4-cyclinD3 (Homo sapiens, UniProt P11802); assay: KINOMEscan; format: binding; details: read-out: Percent Control
T17 construct: purchased Eurofins DiscoverX KINOMEscan (scanMAX 468)

PRKG1 = biological target: T18, PRKG1 (Homo sapiens, UniProt Q13976); assay: KINOMEscan; format: binding; details: read-out: Percent Control
T18 construct: purchased Eurofins DiscoverX KINOMEscan (scanMAX 468)
T18 sequence (Q13976 whole entry): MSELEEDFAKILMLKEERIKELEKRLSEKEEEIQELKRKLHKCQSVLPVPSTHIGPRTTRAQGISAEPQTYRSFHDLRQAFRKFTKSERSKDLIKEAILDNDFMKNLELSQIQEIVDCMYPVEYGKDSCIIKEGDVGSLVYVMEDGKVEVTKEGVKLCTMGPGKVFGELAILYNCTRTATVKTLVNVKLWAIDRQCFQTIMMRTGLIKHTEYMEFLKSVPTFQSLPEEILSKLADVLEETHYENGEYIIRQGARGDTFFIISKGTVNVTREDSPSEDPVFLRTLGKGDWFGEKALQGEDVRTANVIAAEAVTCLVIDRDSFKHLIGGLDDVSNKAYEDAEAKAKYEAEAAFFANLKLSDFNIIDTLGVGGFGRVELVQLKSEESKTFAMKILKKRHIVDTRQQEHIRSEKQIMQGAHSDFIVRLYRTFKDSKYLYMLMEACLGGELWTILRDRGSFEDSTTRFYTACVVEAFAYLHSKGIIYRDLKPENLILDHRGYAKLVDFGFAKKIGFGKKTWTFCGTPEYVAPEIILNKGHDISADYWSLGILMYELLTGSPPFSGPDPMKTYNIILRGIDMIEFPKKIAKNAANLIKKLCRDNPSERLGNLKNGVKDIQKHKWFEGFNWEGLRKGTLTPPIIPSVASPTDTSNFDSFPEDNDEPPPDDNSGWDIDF

MLK3 = biological target: T19, MLK3 (Homo sapiens, UniProt Q16584); assay: KINOMEscan; format: binding; details: read-out: Percent Control
T19 construct: purchased Eurofins DiscoverX KINOMEscan (scanMAX 468)

[2] = biological target: T20, JAK3(JH1domain-catalytic) (Homo sapiens, UniProt P52333); assay: KINOMEscan; format: binding; details: read-out: Percent Control
T20 construct: JAK3(JH1domain-catalytic); purchased Eurofins DiscoverX KINOMEscan (scanMAX 468)

BMPR2 = biological target: T21, BMPR2 (Homo sapiens, UniProt Q13873); assay: KINOMEscan; format: binding; details: read-out: Percent Control
T21 construct: purchased Eurofins DiscoverX KINOMEscan (scanMAX 468)

SIK2 = biological target: T22, SIK2 (Homo sapiens, UniProt Q9H0K1); assay: KINOMEscan; format: binding; details: read-out: Percent Control
T22 construct: purchased Eurofins DiscoverX KINOMEscan (scanMAX 468)

MET(Y1235D) = biological target: T23, MET(Y1235D) (Homo sapiens, UniProt P08581, Y1235D); assay: KINOMEscan; format: binding; details: read-out: Percent Control
T23 construct: purchased Eurofins DiscoverX KINOMEscan (scanMAX 468)

CSNK2A2 = biological target: T24, CSNK2A2 (Homo sapiens, UniProt P19784); assay: KINOMEscan; format: binding; details: read-out: Percent Control
T24 construct: purchased Eurofins DiscoverX KINOMEscan (scanMAX 468)

TAK1 = biological target: T25, TAK1 (Homo sapiens, UniProt O43318); assay: KINOMEscan; format: binding; details: read-out: Percent Control
T25 construct: purchased Eurofins DiscoverX KINOMEscan (scanMAX 468)

NEK6 = biological target: T26, NEK6 (Homo sapiens, UniProt Q9HC98); assay: KINOMEscan; format: binding; details: read-out: Percent Control
T26 construct: purchased Eurofins DiscoverX KINOMEscan (scanMAX 468)

EGFR(T790M) = biological target: T27, EGFR(T790M) (Homo sapiens, UniProt P00533, T790M); assay: KINOMEscan; format: binding; details: read-out: Percent Control
T27 construct: purchased Eurofins DiscoverX KINOMEscan (scanMAX 468)

CAMKK2 = biological target: T28, CAMKK2 (Homo sapiens, UniProt Q96RR4); assay: KINOMEscan; format: binding; details: read-out: Percent Control
T28 construct: purchased Eurofins DiscoverX KINOMEscan (scanMAX 468)

SMILES: Cc1ccc(-n2cc(COc3cccc4cnc(Nc5cccc(Cl)c5)nc34)nn2)c([N+](=O)[O-])c1 [DB18]
- remaining binding at 1 µM (ACVR2B): 100%
- remaining binding at 1 µM [1]: 99%
- remaining binding at 1 µM (RIOK1): 100%
- remaining binding at 1 µM (MEK6): 99%
- remaining binding at 1 µM (MAST1): 79%
- remaining binding at 1 µM (ANKK1): 100%
- remaining binding at 1 µM (PIK3C2G): 97%
- % of residual activity Hs_CDK9/CyclinT (Hs_CDK9/CyclinT; 1 µM): 90%
- % of residual activity Hs_CDK9/CyclinT (Hs_CDK9/CyclinT; 10 µM): 54%
- remaining binding at 1 µM (SRMS): 98%
- remaining binding at 1 µM (PDPK1): 92%
- % of residual activity Hs_HASPIN (Hs_HASPIN; 1 µM): 96%
- % of residual activity Hs_HASPIN (Hs_HASPIN; 10 µM): 94%
- S-Score(25) (panel of 468 kinases): 0.015
- remaining binding at 1 µM (TNNI3K): 92%
- remaining binding at 1 µM (CAMK4): 100%
- remaining binding at 1 µM (MLK2): 100%
- remaining binding at 1 µM (CASK): 99%
- remaining binding at 1 µM (PIK3CA): 95%
- remaining binding at 1 µM (CDK4-cyclinD3): 100%
- remaining binding at 1 µM (PRKG1): 100%
- remaining binding at 1 µM (MLK3): 100%
- remaining binding at 1 µM [2]: 93%
- remaining binding at 1 µM (BMPR2): 100%
- remaining binding at 1 µM (SIK2): 100%
- remaining binding at 1 µM (MET(Y1235D)): 100%
- remaining binding at 1 µM (CSNK2A2): 61%
- remaining binding at 1 µM (TAK1): 100%
- remaining binding at 1 µM (NEK6): 100%
- remaining binding at 1 µM (EGFR(T790M)): 100%
- remaining binding at 1 µM (CAMKK2): 100%
